Legend:
BTK recombinant protein = BTK recombinant protein (Homo sapiens (Human), UniProt Q06187); test: Determination of biochemical BTK (Z'-LYTE kinase assay)
From the text: Example 2 Determination of Biochemical BTK
(§1) 1. Reagents and Materials
BTK recombinant protein: Invitrogen, Cat #PV3363;
Z′-LYTE® kinase test kit-tyrosine 1 peptide: Invitrogen, Cat #PV3190;
Z′-LYTE® biochemical assay employs a fluorescence resonance energy transfer (FRET)—based, coupled-enzyme format and is based on the differential sensitivity of phosphorylated and non-phosphorylated peptides to proteolytic cleavage. Both ends of the short peptide substrate are labeled with two fluorescent groups to form a FRET paired combination. In the primary reaction (the Kinase Reaction), the kinase transfers the γ-phosphate of ATP to a single […] residue on the short peptide substrate. In the secondary reaction (the development reaction), the non-phosphorylated short peptides were recognized and cleaved by a site-specific protease (the development reagent). Phosphorylated short peptides can resist such cleavage. Cleavage of short peptides can disrupt the donor (such as coumarin) and receptor fluorophores (fluorescein) on the short peptides, while the phosphorylated short peptides can maintain FRET. The calculation method of the ratio is as follows, and the ratio of the respective emission signals generated by the donor fluorophores emitted (after excitation at 400 nm) to the receptors is calculated. Emission signal ratio=emitted light by coumarin (445 nm)/emitted light by fluorescein (520 nm). If the FRET short peptide is phosphorylated (such as no kinase inhibitor), the emitted light ratio will remain in a lower level. If the FRET short peptide is non-phosphorylated (such as kinase inhibitor), the emitted light ratio will be in a higher level. In this way, the inhibitory effects of different compound inhibitors on BTK kinase activity would be distinguished.
The experiment were carried out according to the instructions of the Z′-LYTE® kinase test kit-tyrosine 1 peptide. Reagent preparation: 1.33× kinase buffer: 5× kinase buffer was diluted with water to 1.33× kinase buffer; an enzyme solution: the kinase was dissolved in 1.33× kinase buffer with the final working concentration being 3.32 nM; a short peptide solution: a short peptide stock solution (1 mM dissolved in DMSO) was dissolved in 1.33× kinase buffer with the final working concentration being 2 μM; Z′-LYTE Tyr01 phosphorylated short peptide solution, 0.6 μl of stock solution (1 mM dissolved in DMSO) was dissolved in 149.4 μl of 1.33× kinase buffer; an ATP solution: an ATP stock solution (10 mM aqueous solution) was dissolved in 1.33× kinase buffer with the final working concentration being 32 μM; a color-developing solution: color-developing solution B was dissolved in color-developing buffer with the final working concentration being 1× color-developing solution; 4× compound preparation: the compound was diluted in 3-fold gradient concentration to finally obtain 4% DMSO aqueous solution containing different concentrations of the compound, with the final working concentration being 3000, 1000, 333.33, 111.11, 37.04, 12.35, 4.12, 1.37 nM, 8 concentration points in total.
Specific steps of the experiment: In the experiment, there were three control groups, each with 8 replicate wells, which were C1 100% inhibition group (no ATP), C2 0% inhibition group (with ATP), and C3 100% phosphorylation group, respectively. 2.5 μl of serially diluted compound was added to each well of a 384-well plate, with double replicate wells, and 4% DMSO solution was added to wells C1, C2, and C3. After that, except for wells C3, 2.5 μl of BTK enzyme solution was added to each remaining well, which was left to stand at 4° C. for 30 minutes. After that, except for wells C3, 2.5 μl of short peptide solution was added to each well, and 5 μl of phosphorylated short peptide solution was added to each of wells C3. 2.5 μl of 1.33× kinase buffer was added to each of wells C1 and C3, and 2.5 μl of ATP solution was added to each of the remaining wells. […]

[1] = target: phosphorylated BTK in Ramos cells (Homo sapiens (Human), UniProt Q06187); test: Determination of phosphorylated BTK in Ramos cells (BTK phospho-Y223 HTRF); assay type: cell-based; conditions: anti-human IgM + hydrogen peroxide stimulation
Procedure: Determination of Phosphorylated BTK in Ramos Cells
as §1
Ramos cells: Ramos cells were purchased from American Standard Biological Collection Center ATCC Cell Bank, PRMI 1640 medium containing L-glutamine, 1.5 g/L of sodium bicarbonate, 2.383 g/L of HEPES solution, 0.11 g/L of sodium pyruvate and 4.5 g/L of glucose was used, added 10% fetal bovine serum FBS, and placed in a 5% CO2, 37° C. cell incubator for normal culture;
Phosphorylated BTK HTRF detection kit (BTK phospho-Y223 HTRF kit): Cisbio, Cat #63ADK017PEH;
Ramos cells were starved in PRMI 1640 medium with 1% FBS for 2 hours. The starved Ramos cells were diluted with Hank's balanced salt solution to 5.0×10^6 cells/ml, seeded in a 96-well plate with 20 μL/well (1.0×10^5 cells/well), and cultured in a 5% CO2, 37° C. cell incubator. After culturing for 1 hour, the test compound was diluted with Hank's balanced salt solution in 4-fold gradient to the corresponding concentrations, and then 5 μL/well of the diluted test compound with different concentrations (the final concentrations of the test compound were 3.0, 0.75, 0.188, 0.047, 0.012, 0.0029, 0.0007 and 0.00018 μM, and the final concentration of DMSO was 0.3%, double replicate wells) or 5 μL/well of control solution (1.5% DMSO, 8 replicate wells) were added to 20 μL/well of cell culture system, which incubated together for another hour, then 5 μL/well of a mixed solution of human immunoglobulin M (final concentration was 10 μg/mL) and hydrogen peroxide (final concentration was 3.3 mM) diluted with Hank's balanced salt solution was added to the treating wells for the test compound and the control treating wells for anti-human immunoglobulin M, and 5 μL/well of Hank's balanced salt solution was added to negative control treating wells. The plate was incubated in a 5% CO2, 37° C. cell incubator for 10 minutes.
10 μL/well of cell lysis buffer was added to each well of a 96-well plate, which was mixed well and lysed at room temperature for 30 minutes. 16 μL/well of lysis buffer was pipetted to a new 384 well plate, and then added 4 μL/well of phosphorylated BTK antibody, centrifuged (1000 rpm) for 1 minute, then shaken for 1 minute, further centrifuged (1000 rpm) for 1 minute, and finally placed in a constant temperature incubator overnight. Detection was performed on the next day.
The 384 well plate incubated overnight in the constant temperature incubator was taken out to detect the luminescence signal using the Envision microwell plate reader at the […]. The reading value at 665 nm/615 nm of each well multiplied by 104 was used as the signal value of each well.
The average signal value of the wells supplemented with the mixed solution of human immunoglobulin M (final concentration was 10 μg/mL) and hydrogen peroxide (final concentration was 3.3 mM) without the test compound was regarded as the high value, and the average signal value of the wells without immunoglobulin M stimulation and without the test compound was regarded as the low value. According to the signal value in each well, the inhibition ratio (%) of each concentration of compounds was calculated, and the 205 model in XL-Fit 5.3 software (ID Business Solutions Limited) was used to obtain an IC50 value.
The inhibition ratio is calculated as follows: inhibition ratio (%)=100%−{(treating well for the test compound−negative control treating well)/(control treating well for anti-human immunoglobulin M−negative control treating well)}×100%, wherein,
Treating well for the test compound: represents the signal value of Ramos cells treated with anti-human immunoglobulin M, hydrogen peroxide and the test compound.
Control treating well for anti-human immunoglobulin M: represents the signal value of Ramos cells treated with anti-human immunoglobulin M, hydrogen peroxide but without the test compound. […]

Sequence of phosphorylated BTK in Ramos cells (Q06187 whole entry): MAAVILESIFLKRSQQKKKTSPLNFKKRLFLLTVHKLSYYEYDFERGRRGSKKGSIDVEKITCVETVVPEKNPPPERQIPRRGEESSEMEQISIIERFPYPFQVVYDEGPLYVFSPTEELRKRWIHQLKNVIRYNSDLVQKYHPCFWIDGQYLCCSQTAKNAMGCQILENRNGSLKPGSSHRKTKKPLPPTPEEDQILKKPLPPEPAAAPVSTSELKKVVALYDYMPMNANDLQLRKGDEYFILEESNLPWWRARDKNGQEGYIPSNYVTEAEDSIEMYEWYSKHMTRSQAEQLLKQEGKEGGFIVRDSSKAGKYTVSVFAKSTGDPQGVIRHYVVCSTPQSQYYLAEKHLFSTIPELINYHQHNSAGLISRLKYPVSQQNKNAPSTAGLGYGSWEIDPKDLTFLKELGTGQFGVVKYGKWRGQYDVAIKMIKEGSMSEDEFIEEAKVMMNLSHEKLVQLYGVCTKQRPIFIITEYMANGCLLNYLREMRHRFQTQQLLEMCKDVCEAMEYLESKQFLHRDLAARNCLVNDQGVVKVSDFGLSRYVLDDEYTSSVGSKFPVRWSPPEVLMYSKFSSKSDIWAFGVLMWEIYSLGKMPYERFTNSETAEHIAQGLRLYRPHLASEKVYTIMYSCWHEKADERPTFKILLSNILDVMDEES
Sequence of BTK recombinant protein (Q06187 whole entry): as above

Cc1nn(-c2nccc(-c3cc(Nc4cc5n(n4)CCN(C4COC4)C5)c(=O)n(C)c3)c2CO)c(=O)c2cc3c(n12)CC(C)(C)C3 [Compound 164]
IC50 (BTK recombinant protein): 12 nM | IC50 [1]: 23 nM

CC(=O)N1CCn2nc(Nc3cc(-c4ccnc(-n5ccn6c7c(cc6c5=O)CC(C)(C)C7)c4CO)cn(C)c3=O)cc2C1 [Compound 68, 2-(5-((5-acetyl-4,5,6,7-tetrahydropyrazolo[1,5-a]pyrazin-2-yl)amino)-3′-(hydroxymethyl)-1-methyl-6-oxo-1,6-dihydro-[3,4′-bispyridin]-2′-yl)-7,7-dimethyl-7,8-dihydro-2H-cyclopenta[4,5]pyrrolo[1,2-a]pyrazin-1(6H)-one]
IC50 (BTK recombinant protein): 5 nM | IC50 [1]: 2 nM

C[C@H]1CN(C2COC2)CCN1c1ccc(Nc2cc(-c3ccnc(-n4ncn5c6c(cc5c4=O)CCCC6)c3CO)cn(C)c2=O)nc1 [Compound 157]
IC50 (BTK recombinant protein): 16 nM | IC50 [1]: 25 nM

C[C@@H]1c2cc(Nc3cc(-c4ccnc(-n5ccn6c7c(cc6c5=O)CC(C)(C)C7)c4CO)cn(C)c3=O)nn2CCN1C1COC1 [Compound 137]
IC50 (BTK recombinant protein): 6 nM | IC50 [1]: 4 nM

CC(C)n1cc(Nc2cc(-c3ccnc(-n4ccn5c6c(cc5c4=O)CC(C)(C)C6)c3CO)cn(C)c2=O)nn1 [Compound 6]
IC50 (BTK recombinant protein): 2 nM | IC50 [1]: 2 nM

Cn1cc(-c2ccnc(-n3ccn4c5c(cc4c3=O)CC(C)(C)C5)c2CO)cc(Nc2cccnn2)c1=O [Compound 84]
IC50 (BTK recombinant protein): 9 nM | IC50 [1]: 11 nM

CC(C)n1cc(Nc2cc(-c3ccnc(-n4ccn5c6c(cc5c4=O)CC(C)(C)C6)c3CO)cn3ncnc23)nn1 [Compound 18]
IC50 (BTK recombinant protein): 4 nM | IC50 [1]: 4 nM

[2H]C([2H])([2H])n1cc(-c2ccnc(-n3ccn4c5c(cc4c3=O)CC(C)(C)C5)c2CO)cc(Nc2ccc(N3CCN(C4COC4)C[C@@H]3C)cn2)c1=O [Compound 97]
IC50 (BTK recombinant protein): 9 nM | IC50 [1]: 3 nM

Cn1cc(-c2ccnc(-n3ccn4c5c(cc4c3=O)CC(C)(C)C5)c2CO)cc(Nc2ccc(N3CCN(C4COC4)CC34CC4)cn2)c1=O [Compound 231]
IC50 (BTK recombinant protein): 5 nM | IC50 [1]: 4 nM

Cn1cc(-c2ccnc(-n3ccn4c5c(cc4c3=O)CC(C)(C)C5)c2CO)cc(Nc2ccc(C3CCN(C4COC4)CC3)nn2)c1=O [Compound 200]
IC50 (BTK recombinant protein): 4 nM | IC50 [1]: 21 nM

[2H]C([2H])([2H])n1cc(-c2ccnc(-n3ccn4c5c(cc4c3=O)CC(C)(C)C5)c2CO)cc(Nc2ccc(N3CCN(C4COC4)C[C@@H]3C)cn2)c1=O [Compound 39]
IC50 (BTK recombinant protein): 24 nM | IC50 [1]: 3 nM

CN(c1ccc(Nc2cc(-c3ccnc(-n4ncn5c6c(cc5c4=O)CC(C)(C)C6)c3CO)cn(C)c2=O)nc1)C1COC1 [Compound 106]
IC50 (BTK recombinant protein): 12 nM | IC50 [1]: 1 nM

Cn1cc(-c2ccnc(-n3ncn4c5c(cc4c3=O)CC(C)(C)C5)c2CO)cc(Nc2cc3n(n2)CCN(C2CCC2)C3)c1=O [Compound 170]
IC50 (BTK recombinant protein): 18 nM | IC50 [1]: 16 nM

COCCN1CCn2nc(Nc3cc(-c4ccnc(-n5ccn6c7c(cc6c5=O)CC(C)(C)C7)c4CO)cn(C)c3=O)cc2C1C (centres unmarked) [Compound 111]
IC50 (BTK recombinant protein): 8 nM | IC50 [1]: 2 nM

Cn1cc(-c2ccnc(-n3ccn4c5c(c(F)c4c3=O)CCCC5)c2CO)cc(Nc2ccc(N3CCN(C4COC4)CC3(C)C)cn2)c1=O [Compound 225]
IC50 (BTK recombinant protein): 11 nM | IC50 [1]: 9 nM

CCn1cc(Nc2cc(-c3ccnc(-n4ccn5c6c(cc5c4=O)CC(C)(C)C6)c3CO)cn(C)c2=O)cn1 [Compound 172]
IC50 (BTK recombinant protein): 41 nM | IC50 [1]: 11 nM

Cn1cc(-c2ccnc(-n3ccn4c5c(c(F)c4c3=O)CCCC5)c2CO)cc(Nc2cc3n(n2)CCOC3)c1=O [Compound 176]
IC50 (BTK recombinant protein): 3 nM | IC50 [1]: 16 nM

C[C@H]1CN(C2COC2)CCN1c1ccc(Nc2cc(-c3ccnc(-n4ccn5c6c(cc5c4=O)COCC6)c3CO)cn(C)c2=O)nc1 [Compound 93]
IC50 (BTK recombinant protein): 49 nM | IC50 [1]: 46 nM

CCn1cc(Nc2cc(-c3ccnc(-n4ncn5c6c(cc5c4=O)CC(C)(C)C6)c3CO)cn3ncnc23)nn1 [Compound 208]
IC50 (BTK recombinant protein): 4 nM | IC50 [1]: 4 nM

Cc1c(-c2ccnc(-n3ccn4c5c(cc4c3=O)CC(C)(C)C5)c2CO)cc(Nc2ccc(N3CCN(C4COC4)C[C@@H]3C)cn2)c(=O)n1C [Compound 11]
IC50 (BTK recombinant protein): 106 nM | IC50 [1]: 155 nM

C[C@H]1CN2CCOCC2CN1c1ccc(Nc2cc(-c3ccnc(-n4ccn5c6c(cc5c4=O)CC(C)(C)C6)c3CO)cn(C)c2=O)nc1 (mixture of isomers) [Compound 236]
IC50 (BTK recombinant protein): 24 nM | IC50 [1]: 4 nM

COCCN1CCn2nc(Nc3cc(-c4ccnc(-n5ccn6c7c(cc6c5=O)CC(C)C7)c4CO)cn(C)c3=O)cc2C1 (centres unmarked) [Compound 168]
IC50 (BTK recombinant protein): 28 nM | IC50 [1]: 20 nM

Cn1cc(-c2ccnc(-n3ccn4c5c(cc4c3=O)CC(C)(C)C5)c2CO)cc(Nc2cc3n(n2)CCN(C2COC2)C3)c1=O [Compound 124]
IC50 (BTK recombinant protein): 6 nM | IC50 [1]: 7 nM

Cn1cc(-c2ccnc(-n3ccn4c5c(cc4c3=O)CC(C)(C)C5)c2CO)cc(Nc2ccc(N3CCC4(CC3)COC4)cn2)c1=O [Compound 229]
IC50 (BTK recombinant protein): 12 nM | IC50 [1]: 10 nM

Cn1cc(-c2ccnc(-n3ccn4c5c(cc4c3=O)CC(C)(C)C5)c2CO)cc(Nc2ccncn2)c1=O [Compound 83]
IC50 (BTK recombinant protein): 13 nM | IC50 [1]: 13 nM
